Measurements: patent publication US9497963B2, “Methods and compositions for control of gypsy moth, Lymantria dispar” (Simon Fraser University, priority 2008, dated 2016)

Tests used:
[1] = system: response of L. dispar antennae to (+)-disparlure; assay: Competitive electroantennogram (EAG) screen, inhibition of response to (+)-disparlure (Example 4); set-up: species or system Lymantria dispar; settings: for inhibition at 0.001 mg / inhibition at 0.01 mg / inhibition at 0.1 mg: Lymantria dispar, means ± S.E.; for inhibition at 0.001 mg: dose 1 μg on cartridge; for inhibition at 0.01 mg: dose 10 μg on cartridge; for inhibition at 0.1 mg: dose 100 μg on cartridge
Protocol: In this assay, libraries and individual compounds are tested for their ability to inhibit the antennal response to the sex attractant pheromone of the gypsy moth, (7R,8S) 2-methyl-7,8-epoxyoctadecane, also known as (+)-disparlure. The controls consisted of a puff of clean air (negative) or of air passed over a cartridge impregnated with (+)-disparlure (100 ng) (positive). The treatments consisted of 100 ng of (+)-disparlure in combination with a compound or library at 1, 10 or 100 μg, on a cartridge over which the air puff was passed. The small arrows above the trace denote the times where the air was puffed over the antenna.
For some compounds, such as the para Compounds 2c{n}, 2c{n,n} and libraries 3c{n,1-5}, EAG competitive assays were performed to investigate whether the diethers inhibit the response of L. dispar antennae to the main component of the sex attractant pheromone cis-(7R,8S)-epoxy-2-methyloctadecane [(+)-disparlure] (FIG. 4). For EAGs a male moth antenna was mounted and placed in front of a stimulus-delivery glass tubing (160×5 mm ID) with a side orifice (2 mm diam) near (2 cm) the distal opening. The tubing was connected to one port of an apparatus (Stimulus Controller CS-05, Syntech Research and Equipment, NL-1200BM Hilversum, The Netherlands) that generated a constant stream of clean air (300 ml/min). The second port of the apparatus was connected to a Pasteur pipette inserted through the side orifice of the stimulus-delivery tubing. The test stimulus was applied to a disc of Whatman #1 filter paper inside the Pasteur pipette and was discharged through a 0.3-sec pulse of air (600 ml/min) Receptor potentials of the antennae in response to test stimuli were recorded with a Syntech IDAC probe, amplifier and interfaced board, and were analyzed with EAG Syntech Software Version 2.4 (1996) Inhibition (%) was calculated as: % inhibition=(Dd−Ds)/Dd×100 (eq. 1)
Where Dd is the depolarization observed with pure disparlure (corrected for clean air background) and Ds is the depolarization with disparlure+sample. See FIG. 4 for a representative EAG inhibition assay trace.

[2] = system: moths; assay: Simple behavioural tests (films of moths exposed to puffs); type: in vivo, Lymantria dispar; settings: (+)-disparlure:compound 1:1000 vs pheromone alone
[3] = system: male gypsy moth antenna; assay: EAG dose response and ratio tests of (+)-disparlure:3c{1,3} (Example 16); set-up: species or system Lymantria dispar; settings: (+)-disparlure:compound ratios about 1:300 to about 1:2000 or greater
Protocol: Dose response and ratio tests were done at each of the following (+)-disparlure concentrations: 1 ng, 10 ng, 50 ng, 100 ng, 500 ng and 1000 ng, the following ratios of (+)-disparlure:3c{1,3} were tested: 1:100, 1:300, 1:500, 1:700, 1:1000, 1:1500 and 1:2000 (FIG. 19).

[4] = system: male gypsy moth antenna; assay: EAG effects of 3c{1,3} with (+)-disparlure at different ratios (Example 14); set-up: species or system Lymantria dispar; settings: for STI (short-term inhibition): mixture relative to first puff of pure (+)-disparlure
Text: The compound has the following effects in the EAG at the following ratios: […]

[5] = system: gypsy moth sensillum; assay: Single sensillum recordings; set-up: species or system Lymantria dispar; settings: (+)-disparlure and compound mixed 1:1000
[6] = system: gypsy moths; assay: Field test of trap catches, Northern Japan 2009 (Example 12); type: in vivo, Lymantria dispar; settings: (+)-dis 40 μg/lure & compound 40 mg/lure, vs (+)-dis alone
Protocol: Ten traps were used per treatment. The solvent used to deliver the compounds onto the lures was doubly distilled hexane. The hexane was evaporated prior to packing and shipping the lures. The field test was conducted in 10 replicates in Northern Japan. The test was conducted Aug. 16-18, 2009, in an area where gypsy moths are known to live. […] Traps were arranged randomized, placed on platforms. The experiment was conducted blind. The lures contained 40 μg disparlure/lure, a low dose for a field trial (typically 100 μg-1 mg are used). For each treatment, 10 traps were deployed.

[7] = system: male gypsy moth antennae response to pheromone (+)-1 with plant odors; assay: Effect on mixed pheromone/plant odorant stimulus, EAG (Example 8, second objective); set-up: species or system Lymantria dispar
Protocol: A second objective for this experiment was to determine whether the oak volatiles, methyl eugenol and 1-hexanol, can enhance the antennal response to (+)-1 and whether the mixed pheromone/plant odorant stimulus can be inhibited by compound 3c{2,3} or DEET. The puff order was: i) air, ii) pure (+)-1 (100 ng), iii) (+)-1 (100 ng) and plant odorant (1 μg for methyl eugenol and 100 μg for 1-hexanol), iv) (+)-1 and plant odorant as in iii+antagonist (100 μg), v) same as in iii. Depolarizations were corrected for the air response as in Eq. 1 and the short-term effects were calculated for puff iii relative to puff ii, and for puff iv relative to puff ii. Long-term effects were calculated for puff v relative to puff iii (for LTI of the mixed pheromone/plant odorant plume) and for puff v relative to puff ii (to determine whether long-term effects of the plant odorant and of the antagonist cancel).

[8] = system: male gypsy moth antenna response to odorants other than (+)-1; assay: Long-term inhibition of responses to other pheromone and host plant odorants, EAG (Example 8, first objective); set-up: species or system Lymantria dispar; settings: antagonist 100 μg
Protocol: To determine whether the long-term inhibitory effects of 3c{2,3} and DEET are specific to (+)-1 or also apply to other odorants, compound 3c{2,3} and DEET were tested further with other odorants: (−)-1, racemic 1, dispar alkene, methyl eugenol and 1-hexanol.
These included (−)-1, racemic 1, dispar alkene (the alkene corresponding to the carbon framework of 1), methyl eugenol (a characteristic oak wood odorant) and 1-hexanol (a green leaf volatile, shown previously to be detected by gypsy moth antennae). For the pure odorant puffs, (−)-1 and racemic 1 were administered at 100 ng/cartridge, the alkene, methyl eugenol was administered at 1 μg/cartridge and 1-hexanol was administered at 100 μg/cartridge. The antagonists were both administered at 100 μg/cartridge, mixed with the appropriate dose of the odorant. The puff order was: i) air, ii) pure odorant, iii) odorant+antagonist, iv) pure odorant. All puffs were corrected for the air response as in Eq. 1. STI values were obtained from the depolarization […]. LTI values were obtained by comparing the depolarization of puff iv relative to that of puff ii.

[9] = plant synergist 1-hexanol 100 μg
[10] = plant synergist methyl eugenol 1 μg
[11] = odorant racemic disparlure 100 ng

**Q.** What does the source list for `COc1ccc(OC)cc1` [3c{1,1}, 1,4-Dimethoxy benzene]?
**A.** inhibition at 0.001 mg [1]: 4 ± 6%; inhibition at 0.01 mg [1]: -8 ± 9%; inhibition at 0.1 mg [1]: 38 ± 7%

**Q.** `CCCOc1ccc(OC)cc1` [3c{1,3}, 1-methoxy-4-propoxy-benzene] was tested. Which “behaviour of moths exposed to puffs” value [2] did it give?
**A.** excited and violently flap their wings much longer

**Q.** What about the “EAG depolarization shape (in words)” value [3] of the same compound?
**A.** increasingly broad depolarizations

**Q.** And the “STI (short-term inhibition)” value ([4]; 100 ng (+)-disparlure + 1 μg 3c{1,3}, ratio 1:10 by mass)?
**A.** 28 ± 16 (6)

**Q.** And the “STI (short-term inhibition)” value ([4]; 100 ng (+)-disparlure + 10 μg 3c{1,3}, ratio 1:100 by mass)?
**A.** −2 ± 5 (6)

**Q.** And the “STI (short-term inhibition)” value ([4]; 100 ng (+)-disparlure + 100 μg 3c{1,3}, ratio 1:1000 by mass)?
**A.** 48 ± 14 (6)

**Q.** And the “LTI (long-term inhibition)” value ([4]; (+)-disparlure puff immediately after last mixed puff (1:1000 ratio), relative to first (+)-disparlure reference puff)?
**A.** 39 ± 12 (6)

**Q.** What about the “enhancement of neuronal activity” value [5] of the same compound?
**A.** significant

**Q.** And the “trap catches in the field” value [6]?
**A.** enhanced the trap catches significantly

**Q.** Which inhibition at 0.001 mg [1] does the source give for `CCOc1ccc(OCC)cc1` [3c{2,2}, 1,4-Diethoxy benzene] here?
**A.** 4 ± 13%

**Q.** And the inhibition at 0.01 mg [1]?
**A.** 45 ± 6%

**Q.** What about the inhibition at 0.1 mg [1] of the same compound?
**A.** -3 ± 13%

**Q.** Which “short-term effect with plant synergist + antagonist” value ([7]; (+)-1 100 ng + 1-hexanol 100 μg + antagonist 100 μg) does the source give for `CCCOc1ccc(OCC)cc1` [3c{2,3}, 1-ethoxy-4-propoxy benzene] here?
**A.** −99 ± 60 (5)

**Q.** And the “short-term effect with plant synergist + antagonist” value ([7]; (+)-1 100 ng + methyl eugenol 1 μg + antagonist 100 μg)?
**A.** −125 ± 95 (4)

**Q.** And the “long-term effect on (+)-1 response” value [7, 9]?
**A.** 20 ± 18 (5)

**Q.** What about the “long-term effect on the mixed (+)-1/plant odor plumes” value [7, 9] of the same compound?
**A.** 5 ± 24 (5)

**Q.** What about the “long-term effect on (+)-1 response” value [7, 10] of the same compound?
**A.** 12 ± 33 (4)

**Q.** What about the “long-term effect on the mixed (+)-1/plant odor plumes” value [7, 10] of the same compound?
**A.** 11 ± 47 (4)

**Q.** And the “long-term activity (%)” value ([8]; odorant 1-hexanol 100 μg)?
**A.** 29 ± 18%

**Q.** What about the “short-term activity (%)” value ([8]; odorant 1-hexanol 100 μg) of the same compound?
**A.** −34 ± 28%

**Q.** What about the “long-term activity (%)” value ([8]; odorant (−)-disparlure 100 ng) of the same compound?
**A.** 43 ± 12%

**Q.** What about the “long-term activity (%)” value ([8]; odorant dispar alkene 1 μg) of the same compound?
**A.** 39 ± 12%

**Q.** And the “short-term activity (%)” value ([8]; odorant dispar alkene 1 μg)?
**A.** −244 ± 15%

**Q.** And the “long-term activity (%)” value ([8]; odorant methyl eugenol 1 μg)?
**A.** 46 ± 24%

**Q.** And the “long-term activity (%)” value [8, 11]?
**A.** 69 ± 5%

**Q.** And the “short-term activity (%)” value [8, 11]?
**A.** −154 ± 45%

**Q.** And the “trap catches in the field” value [6]?
**A.** enhanced the trap catches significantly

**Q.** With `CCCOc1ccc(OCCC)cc1` [3c{3,3}, 1,4-Dipropoxy benzene] as the compound, how does the “inhibitory activity on antennal pheromone responses (in words)” value [1] read?
**A.** moderate inhibitory activity

**Q.** And the inhibition at 0.001 mg [1]?
**A.** 5 ± 16%

**Q.** What about the inhibition at 0.01 mg [1] of the same compound?
**A.** 55 ± 7%

**Q.** What about the inhibition at 0.1 mg [1] of the same compound?
**A.** -3 ± 15%

**Q.** `CC(C)CCOc1ccc(OCCC(C)C)cc1` [3c{5,5}, 1,4-Di-(3-methyl-butyloxy) benzene] was tested. Which “inhibitory activity on antennal pheromone responses (in words)” value [1] did it give?
**A.** moderate inhibitory activity

**Q.** What about the inhibition at 0.001 mg [1] of the same compound?
**A.** 63 ± 12%

**Q.** What about the inhibition at 0.01 mg [1] of the same compound?
**A.** 38 ± 22%

**Q.** What about the inhibition at 0.1 mg [1] of the same compound?
**A.** 64 ± 11%
